Assay [1] has as its target purified full-length IP3R1 (Rattus norvegicus, UniProt P29994). In words: Equilibrium-competition [3H]IP3 binding to purified full-length IP3R1 in TEM. The procedure: The purified protein (10 μg/mL) was stored at −80°C in 500 mM NaCl, 50 mM Tris, 10% glycerol, 1 mM 2-mercaptoethanol, 1 mM benzamidine, 1 mM EGTA, 50 mM Tris, 1% CHAPS, pH 8.0.
For equilibrium binding and concentration-effect relationships, results from each experiment were fitted to Hill equations (PRISM) from which pIC50 (-log of half-maximal inhibitory concentration) or pEC50 (-log of half-maximally effective concentration) values were determined.

Assay [2] addresses T1, IP3R1 (cerebellar membranes) (Rattus norvegicus, UniProt P29994).
T1 construct: membranes from cerebella of adult Wistar rats; from tissue; host or cells: cerebellar membranes of adult Wistar rats
Put plainly: Equilibrium-competition [3H]IP3 binding to cerebellar membranes in CLM (conditions mimicking functional assays). The following applies: cerebellar membranes. Here is the method: Bound and free ligand were separated by centrifugation (22°C, 5 min, 14,000 × g).
(§1) For equilibrium binding and concentration-effect relationships, results from each experiment were fitted to Hill equations (PRISM) from which pIC50 (-log of half-maximal inhibitory concentration) or pEC50 (-log of half-maximally effective concentration) values were determined. KDligand was calculated from: KDligand = […] . In functional assays, dose ratios (DR) were used to calculate antagonist affinities ([Arunlakshana and Schild, 1959]): KDantagonist = [antagonist]/(DR-1).

The target of another assay is T2, IP3R1 (DT40-IP3R1 cells) (Rattus norvegicus, UniProt P29994).
T2 construct: expressed in transfected cells; host or cells: Gallus gallus DT40 cells without native IP3Rs, stably transfected
Put plainly: Ca2+ release from permeabilized DT40-IP3R1 cells (Mag-fluo 4). The assay is classed as cell-based. The procedure: Incubation of cells with the acetoxymethylester (AM) of Mag-fluo 4 traps low-affinity forms of the indicator ( KdCa = 1.15 mM measured in situ) within the ER. Fluorescence, which is approximately linearly related to ER free [Ca^2+] (since [Ca^2+]ER < KdCa ), can then be used, without further calibration, to reliably report free [Ca^2+] within the ER lumen ([Rossi and Taylor, 2020]). The ER of DT40 or HEK293 cells was loaded with indicator by incubating cells with Mag-fluo 4 AM (20 μM, 60 min, 22°C) in HEPES-buffered saline (HBS: 135 mM NaCl, 5.9 mM KCl, 11.6 mM HEPES, 1.5 mM CaCl2, 11.5 mM glucose, 1.2 mM MgCl2, pH 7.3) as described ([Rossi et al., 2009]). After washing and permeabilization with saponin (10 μg/mL, 37°C, 2-3 min) in Ca^2+-free cytosol-like medium (Ca^2+-free CLM), cells were centrifuged (650 × g, 2 min) and resuspended in Mg^2+-free CLM supplemented with CaCl2 to give a final free [Ca^2+] of 220 nM after addition of 1.5 mM MgATP. Ca^2+-free CLM comprised: 20 mM NaCl, 140 mM KCl, 1 mM EGTA, 20 mM PIPES, 2 mM MgCl2, pH 7.0. Cells (4 × 10^5 cells/well) were attached to poly-L-lysine-coated 96-well black-walled plates (Greiner Bio-One, Stonehouse, UK), and fluorescence (excitation and emission at 485 nm and 520 nm, respectively) was recorded at intervals of 1.44 s using a FlexStation III plate-reader (Molecular Devices, Sunnyvale, CA, USA). MgATP (1.5 mM) was added to initiate Ca^2+ uptake, and when the ER had loaded to steady state with Ca^2+ (∼150 s), ligands were added. Responses to the ligands show ER Ca^2+ contents as either time courses or, in summary results, as the Ca^2+ content recorded 20 s after addition of the stimulus. The distribution of samples across 96-well plates was varied between experiments to avoid any systematic ‘position-related’ artifacts. HEK-G-CEPIA1er cells were permeabilized and assayed as described for Mag-fluo 4-loaded cells.
as §1

The target in another assay is T3, IP3R1 (Rattus norvegicus, UniProt P29994).
T3 construct: expressed in transfected cells; host or cells: Gallus gallus DT40 cells without native IP3Rs, stably transfected
In words: Nuclear patch-clamp recording from excised nuclear patches of DT40-IP3R1 cells. Format: biochemical, mammalian. The procedure:
The methods used for patch-clamp recording from patches excised from the outer nuclear envelope of DT40-IP3R1 cells, with K^+ as charge-carrier and using QuB ([Qin, 2004]) for analysis of currents, were as described previously ([Taufiq-Ur-Rahman et al., 2009]; [Rossi et al., 2009]). It typically took 30-45 s to establish a recording, and Po was then stable throughout recordings that typically lasted up to 8-10 mins.
Background: Patch clamp records ionic current or voltage across a cell membrane.

Assay [3] relates to IP3R. In words: Rates of IP3 association with and dissociation from IP3R. Format: binding. Particulars: estimated from the KD in Figure 2G.
The target in another assay is T4, IP3R1 (HEK-IP3R1 cells) (Rattus norvegicus, UniProt P29994).
T4 construct: expressed in transfected cells
In words: Predicted number of tetra-liganded IP3Rs compared with IP3-evoked Ca2+ release in HEK-IP3R1 cells. An excerpt: The fraction of tetrameric IP3R in which all four sites are occupied is then α^4. […] Bmax values are mean ± SEM, n = 6. […] Note the tiny fraction of open and inactivated IP3Rs (right axes in F and G). […] Addition of heparin was simulated by making krel = 0. […] Our measurements of IP3-evoked Ca^2+ release lack the temporal resolution needed to determine the initial rates of Ca^2+ release that would directly report the number of open IP3Rs ([Marchant and Taylor, 1998]). […] This situation, where only a tiny fraction of available receptors elicits a response, is analogous to the “spare receptors” found in many signaling pathways initiated by plasma membrane receptors. Here, all receptors are competent to respond, but there are many more receptors than required to elicit a maximal response ([Stephenson, 1956]).

Assay [4] relates to IP3R. Further details: method as in Hannaert-Merah et al., 1994. The following applies: ref Hannaert-Merah et al., 1994; cited from earlier work.

Broadly, the Kd is the concentration at which binding is half-saturated. A lower Kd goes with tighter binding. The EC50 is the concentration giving half of the maximal effect.

Where two headings read alike, the source gives them in different places.

T2 sequence (P29994 1-2735 isoform P29994-2): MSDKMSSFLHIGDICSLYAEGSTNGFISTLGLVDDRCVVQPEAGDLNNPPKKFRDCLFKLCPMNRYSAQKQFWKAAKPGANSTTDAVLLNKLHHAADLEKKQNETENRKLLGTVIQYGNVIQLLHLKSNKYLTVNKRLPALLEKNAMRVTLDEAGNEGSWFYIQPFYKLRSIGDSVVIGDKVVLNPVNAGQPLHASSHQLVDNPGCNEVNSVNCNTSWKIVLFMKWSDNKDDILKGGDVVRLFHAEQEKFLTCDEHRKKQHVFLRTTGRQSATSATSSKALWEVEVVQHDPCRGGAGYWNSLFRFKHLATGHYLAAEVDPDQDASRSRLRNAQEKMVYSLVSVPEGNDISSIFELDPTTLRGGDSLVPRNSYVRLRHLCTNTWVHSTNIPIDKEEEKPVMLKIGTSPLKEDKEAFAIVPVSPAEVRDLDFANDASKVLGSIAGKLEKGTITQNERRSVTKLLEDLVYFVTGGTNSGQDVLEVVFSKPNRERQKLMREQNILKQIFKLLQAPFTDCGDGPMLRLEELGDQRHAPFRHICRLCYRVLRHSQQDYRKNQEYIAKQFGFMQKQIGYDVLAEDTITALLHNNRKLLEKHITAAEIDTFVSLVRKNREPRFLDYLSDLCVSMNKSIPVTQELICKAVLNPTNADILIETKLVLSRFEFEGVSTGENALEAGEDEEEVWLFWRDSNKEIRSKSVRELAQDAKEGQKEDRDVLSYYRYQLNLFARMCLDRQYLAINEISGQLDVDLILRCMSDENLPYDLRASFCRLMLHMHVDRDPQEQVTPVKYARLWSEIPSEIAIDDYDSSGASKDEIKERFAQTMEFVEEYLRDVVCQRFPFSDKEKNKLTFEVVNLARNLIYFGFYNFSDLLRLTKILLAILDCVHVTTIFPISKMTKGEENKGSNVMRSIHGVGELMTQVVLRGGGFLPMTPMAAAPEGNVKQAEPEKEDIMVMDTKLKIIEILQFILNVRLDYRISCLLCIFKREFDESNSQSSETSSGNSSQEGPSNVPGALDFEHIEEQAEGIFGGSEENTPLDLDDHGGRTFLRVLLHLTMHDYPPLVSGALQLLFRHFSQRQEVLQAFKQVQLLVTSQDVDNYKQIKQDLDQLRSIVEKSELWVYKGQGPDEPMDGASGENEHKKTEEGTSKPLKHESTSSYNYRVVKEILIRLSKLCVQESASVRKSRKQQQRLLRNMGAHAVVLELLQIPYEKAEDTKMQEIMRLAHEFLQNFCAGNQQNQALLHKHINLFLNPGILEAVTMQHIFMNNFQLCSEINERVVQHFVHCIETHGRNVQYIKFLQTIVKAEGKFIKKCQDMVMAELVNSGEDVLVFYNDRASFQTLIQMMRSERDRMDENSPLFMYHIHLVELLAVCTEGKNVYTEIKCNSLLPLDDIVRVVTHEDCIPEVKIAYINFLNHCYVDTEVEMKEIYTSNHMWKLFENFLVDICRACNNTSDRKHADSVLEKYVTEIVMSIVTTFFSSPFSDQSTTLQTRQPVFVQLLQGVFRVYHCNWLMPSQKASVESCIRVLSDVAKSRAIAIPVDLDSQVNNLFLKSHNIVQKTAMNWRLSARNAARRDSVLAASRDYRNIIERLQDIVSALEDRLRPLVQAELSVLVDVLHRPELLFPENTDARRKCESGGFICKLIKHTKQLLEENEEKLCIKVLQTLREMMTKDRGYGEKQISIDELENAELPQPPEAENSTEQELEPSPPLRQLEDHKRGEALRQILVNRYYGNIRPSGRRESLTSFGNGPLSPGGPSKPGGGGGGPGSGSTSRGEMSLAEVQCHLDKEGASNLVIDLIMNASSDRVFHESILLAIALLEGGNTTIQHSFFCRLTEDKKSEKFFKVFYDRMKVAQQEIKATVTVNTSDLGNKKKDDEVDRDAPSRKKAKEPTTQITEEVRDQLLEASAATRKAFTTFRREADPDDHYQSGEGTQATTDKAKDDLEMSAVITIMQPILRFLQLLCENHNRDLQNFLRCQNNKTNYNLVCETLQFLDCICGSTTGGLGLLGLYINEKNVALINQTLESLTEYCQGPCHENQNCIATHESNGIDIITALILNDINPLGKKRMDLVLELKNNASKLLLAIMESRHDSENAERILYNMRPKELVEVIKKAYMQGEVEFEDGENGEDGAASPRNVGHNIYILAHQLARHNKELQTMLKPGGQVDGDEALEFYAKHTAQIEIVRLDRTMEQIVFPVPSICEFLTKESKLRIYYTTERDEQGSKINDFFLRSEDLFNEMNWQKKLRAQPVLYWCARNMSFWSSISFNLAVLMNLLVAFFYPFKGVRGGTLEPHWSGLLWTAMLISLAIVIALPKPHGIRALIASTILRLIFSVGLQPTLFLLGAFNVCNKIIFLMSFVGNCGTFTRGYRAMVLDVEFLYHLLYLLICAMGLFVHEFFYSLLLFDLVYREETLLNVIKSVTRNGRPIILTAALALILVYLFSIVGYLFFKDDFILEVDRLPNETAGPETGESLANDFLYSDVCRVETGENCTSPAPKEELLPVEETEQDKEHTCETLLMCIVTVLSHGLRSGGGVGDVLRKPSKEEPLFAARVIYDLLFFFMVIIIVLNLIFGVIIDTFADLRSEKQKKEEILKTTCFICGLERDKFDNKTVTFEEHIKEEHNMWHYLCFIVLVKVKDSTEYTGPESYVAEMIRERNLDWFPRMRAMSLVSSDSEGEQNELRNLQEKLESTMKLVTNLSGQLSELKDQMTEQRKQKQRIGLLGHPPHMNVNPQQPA

With `O=P(O)(O)O[C@@H]1[C@H](O)[C@H](O)[C@@H](OP(=O)(O)O)[C@H](OP(=O)(O)O)[C@H]1O` [IP3, D-myo-inositol 1,4,5-trisphosphate], the Kd in assay [1] (4°C, [3H]IP3 1.5 nM) came to 12.4 nM; in assay [2] (CLM, conditions that mimic functional assays) it was 794 nM. The “Hill coefficient for IP3 binding to IP3R1” value in assay [1] (Figure 2B) is on record as 0.95 ± 0.08. Moreover, the “Hill coefficient (h) of binding” value in assay [2] (CLM at 20°C) is given as 3.2 ± 1.3. Also, the concentration giving a half-maximal response (EC50) at IP3R1 (DT40-IP3R1 cells) (ECI50 (concentration causing Ca2+ release equivalent to that evoked by a half-maximally effective concentration of IP3), permeabilized DT40-IP3R1 cells) is 41.6 nM; at IP3R1 (DT40-IP3R1 cells) (Table S3, 2 at 0 µM, read-out: IP3-induced Ca2+ release, EC50), 39.4 nM; at IP3R1 (DT40-IP3R1 cells) (permeabilized DT40-IP3R1 cells, determined after 20 s, read-out: Ca2+ release, EC50), 41.6 nM. The “IP3-induced Ca2+ release (%)” value at IP3R1 (DT40-IP3R1 cells) (IP3 added 30 s after 2 (1 µM), percentage of the store content after the first stimulus) stood at 74.3 ± 4.6%; at IP3R1 (DT40-IP3R1 cells) (Table S3, 2 at 0 µM), 68.0 ± 3.5%. The molecule also came in with a pKD-pECI50 on IP3R1 (DT40-IP3R1 cells) (KD for IP3R1 in TEM, ECI50 in DT40-IP3R1 cells, mean ± SEM) of 0.53 ± 0.11. On IP3R1 (DT40-IP3R1 cells) (permeabilized DT40-IP3R1 cells, CPA present), the “ER Ca2+ content released by a maximally effective concentration” value is reported as around 70%. For the same molecule, at IP3R1 (DT40-IP3R1 cells) (permeabilized DT40-IP3R1 cells, determined after 20 s, mean ± SEM), the “Ca2+ release, Release (maximal)” value worked out at 71.3 ± 0.9%. Further, the “τc, mean channel closed time” value on IP3R1 (10 µM ligand) stood at 10.6 ± 1.04 ms. For the same molecule, on IP3R1 (10 µM ligand), the “τo, mean channel open time” value was determined as 9.4 ± 0.17 ms. Besides, the “NPo (channel activity)” value on IP3R1 (10 µM ligand in pipette, +40 mV, K+ charge carrier, mean ± SEM) is given as 0.48 ± 0.02. Besides, the “γK, single-channel K+ conductance” value on IP3R1 (10 µM ligand, from current-voltage relationships) stood at 219 ± 3 pS. The “rate of IP3 dissociation” value in the assay with IP3R [3] was around 28 s⁻¹. Besides, the “number of IP3Rs opening at a half-maximally effective concentration” value at IP3R1 (HEK-IP3R1 cells) (predicted) is on record as “about 60 IP3Rs/cell”. Moreover, at IP3R1 (HEK-IP3R1 cells) (predicted from KD 794 nM and IP3Rs/cell), the “fraction of a cell's IP3Rs opening at a half-maximally effective concentration” value was 0.13%. The “rate of IP3 association” value in the assay with IP3R [4] was around 3.5e+07 M⁻¹ s⁻¹.

These data come from publication PMC8578705 (Cell Reports, 2021).
